Measurements published in ChEMBL document CHEMBL1157085, “Cytoglobosins A-G, cytochalasans from a marine-derived endophytic fungus, Chaetomium globosum QEN-14” (J Nat Prod, 2010).
Activity calls are given as the source filed them. The calls are words filed in the database; no cut-off is given here.

Assays:
Type in all cases: functional, cell-based
[1] = test system: A549; assay: Cytotoxicity against human A549 cells
[2] = test system: P388; assay: Cytotoxicity against mouse P388 cells
[3] = test system: KB; assay: Cytotoxicity against human KB cells

Row | Structure (SMILES) | IC50 [1] [µM] | Activity [2] | Activity [3]
1 | C=C1[C@@H](C)[C@H]2[C@H](Cc3c[nH]c4ccccc34)NC(=O)[C@]23C(=O)C[C@H]2C(=O)C(O)=C(C)[C@@H]2[C@@H](C)C/C=C/[C@H]3[C@@H]1O [CYTOGLOBOSIN A] | > 10 | inactive | inactive
2 | C=C1[C@@H](C)[C@H]2[C@H](Cc3c[nH]c4ccccc34)NC(=O)[C@]23C(=O)/C=C/[C@H](O)[C@H](O)/C(C)=C/[C@@H](C)C/C=C/[C@H]3[C@@H]1O [CYTOGLOBOSIN B] | > 10 | inactive | inactive
3 | CC1=C(C)[C@H]2[C@H](Cc3c[nH]c4ccccc34)NC(=O)[C@]23C(=O)/C=C/[C@H](O)[C@H](O)/C(C)=C/[C@@H](C)C/C=C/[C@H]3[C@@H]1O [CYTOGLOBOSIN C] | 2.26 | inactive | inactive
4 | CC1=C[C@@H]2/C=C/C[C@H](C)/C=C(\C)[C@@H](O)[C@@H](O)/C=C/C(=O)[C@]23C(=O)N[C@@H](Cc2c[nH]c4ccccc24)[C@@H]3[C@@H]1C [CYTOGLOBOSIN D] | 2.55 | inactive | inactive
5 | C/C1=C\[C@@H](C)C/C=C/[C@H]2C=C(CO)[C@@H](C)[C@H]3[C@H](Cc4c[nH]c5ccccc45)NC(=O)[C@]32C(=O)CCC(=O)C1=O [CYTOGLOBOSIN E] | > 10 | inactive | inactive
